Measured values published in patent US20250354195A1, “METHOD OF SCREENING” (UNIVERSITY OF DUNDEE, priority 2024, published 2025).

Target: T1, GSK3β (Homo sapiens, UniProt P49841+Q96SW2)
T1 construct: genetically engineered using CRISPR/Cas9 technology to endogenously tag GSK3p protein with HiBiT tag at the C-terminus; host or cells: HEK293 cells, CRISPR/Cas9 knock-in of HiBiT at the endogenous GSK3B locus
Assay: High throughput screening for GSK3β-HiBiT targeted degradation (Nano-Glo HiBiT Lytic luminescence)
Type: cell-based
Conditions: HEK293 cells with endogenously HiBiT-tagged GSK3β, 24 h incubation, products of one-pot plate array (FIG. 1, Method A); for DC50: 0.01-30 μM, read-out: DC50 (half-maximal degradation concentration)
Experimental: High throughput Screening for GSK3 β-HiBiTL: Test compounds were transferred into Echo plate (Beckman, 001-12782, Echo LDV384) using BRAVO automated liquid handling platform which serves as source plate (10 mM stocks in DMSO). Serial dilutions of the compounds were done using Echo550 liquid handler as 30 μM, 10 μM, 3 μM, 1 μM, 0.3 μM, 0.1 μM, 0.03 μM and 0.01 μM in final concentrations in assay plates. One column of each assay plate was reserved for DMSO control treatments. After compounds were serially diluted in assay plates, HEK293 cells (CRL-1573, ATCC) genetically engineered using CRISPR/Cas9 technology to endogenously tag GSK3p protein with HiBiT tag at the C-terminus (Schwinn et al., 2018, CRISPR-mediated tagging of endogenous proteins with a luminescent peptide, ACS Chem. Biol., 13(2), 467-74) were seeded at a density of 5000 cells/well in 50 μL complete media in 384-well TC-grade white plates (Perkin Elmer, Culturplate, 6007619) with the help of Multidrop Combi liquid dispenser and cells were incubated for 24 h with compounds at 37° C. in humidified incubators with 5% CO2. At the end of the treatment, equal volume of Nano-Glo HiBiT Lytic reagent (Promega N3030) supplied with Nano-Glo HiBiT Lytic substrate and LgBiT Protein were added into each well according to manufacturer's instructions, and cells were incubated on an orbital shaker for 15 seconds and for a further 15 minutes at room temperature. Luminescence signals were measured in an appropriate plate reader (PHERAstar FSX, BMG Labtech) (Dixon et al., 2016, NanoLuc complementation reporter optimized for accurate measurement of protein interactions in cells, ACS Chem. Biol., 11, 400-8). Changes in protein abundance upon compound treatment were further analysed by normalising raw luminescence values to DMSO values and fold changes were plotted using for parameter logistic regression with GraphPad Prism (10.1.2).
Furthermore, the present investigators have shown that bifunctional compounds manufactured using the method of the present disclosure may be effective in the uses of bifunctional compounds, for example as PROTACs in targeted protein degradation (TPD). […] GSK3p was targeted for degradation using a binder for GSK3p, and a binder for CRBN; the binders were comprised in molecules comprising moieties for reacting with the orthogonally reactive moieties of the linker. […] The “identifier” identifies the well of the multi-well plate that has been sampled, e.g., AHD2B-1-A1 relates to the top left well in FIG. 1. The DC50 provides an indication of the potency of the bifunctional compound in targeted degradation; Dmax provides an indication of the maximum possible degradation. The use of these metrics is further described in Flexible Fitting of PROTAC Concentration-Response Curves with Changepoint Gaussian Processes, Semenova et al., SLAS Discovery, 2021, 26, 1212-1224.

T1 sequence (P49841 whole entry): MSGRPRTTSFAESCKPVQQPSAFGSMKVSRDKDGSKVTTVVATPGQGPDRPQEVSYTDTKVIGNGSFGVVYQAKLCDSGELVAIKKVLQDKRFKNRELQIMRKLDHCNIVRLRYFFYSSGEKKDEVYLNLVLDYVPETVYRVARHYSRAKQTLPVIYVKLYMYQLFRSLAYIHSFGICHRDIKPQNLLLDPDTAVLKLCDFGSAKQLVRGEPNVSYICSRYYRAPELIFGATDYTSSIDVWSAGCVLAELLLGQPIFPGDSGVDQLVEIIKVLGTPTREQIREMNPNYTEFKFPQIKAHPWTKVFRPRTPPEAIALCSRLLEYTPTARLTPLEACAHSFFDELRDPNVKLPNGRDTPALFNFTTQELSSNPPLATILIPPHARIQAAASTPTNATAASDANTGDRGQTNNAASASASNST
T1 sequence (Q96SW2 whole entry): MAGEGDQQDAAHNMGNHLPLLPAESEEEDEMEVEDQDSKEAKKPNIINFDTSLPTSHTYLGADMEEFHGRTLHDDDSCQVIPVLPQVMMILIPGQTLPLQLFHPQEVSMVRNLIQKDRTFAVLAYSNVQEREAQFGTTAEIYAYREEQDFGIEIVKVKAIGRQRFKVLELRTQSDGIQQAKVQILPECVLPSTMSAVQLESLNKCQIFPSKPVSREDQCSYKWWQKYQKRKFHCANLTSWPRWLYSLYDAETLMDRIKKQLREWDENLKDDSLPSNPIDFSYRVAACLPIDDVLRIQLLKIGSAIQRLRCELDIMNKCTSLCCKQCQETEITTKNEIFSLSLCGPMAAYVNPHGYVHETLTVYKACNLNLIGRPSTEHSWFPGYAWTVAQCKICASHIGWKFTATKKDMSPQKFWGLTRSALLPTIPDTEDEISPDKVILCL
T1 sequence (Q16531 whole entry partner): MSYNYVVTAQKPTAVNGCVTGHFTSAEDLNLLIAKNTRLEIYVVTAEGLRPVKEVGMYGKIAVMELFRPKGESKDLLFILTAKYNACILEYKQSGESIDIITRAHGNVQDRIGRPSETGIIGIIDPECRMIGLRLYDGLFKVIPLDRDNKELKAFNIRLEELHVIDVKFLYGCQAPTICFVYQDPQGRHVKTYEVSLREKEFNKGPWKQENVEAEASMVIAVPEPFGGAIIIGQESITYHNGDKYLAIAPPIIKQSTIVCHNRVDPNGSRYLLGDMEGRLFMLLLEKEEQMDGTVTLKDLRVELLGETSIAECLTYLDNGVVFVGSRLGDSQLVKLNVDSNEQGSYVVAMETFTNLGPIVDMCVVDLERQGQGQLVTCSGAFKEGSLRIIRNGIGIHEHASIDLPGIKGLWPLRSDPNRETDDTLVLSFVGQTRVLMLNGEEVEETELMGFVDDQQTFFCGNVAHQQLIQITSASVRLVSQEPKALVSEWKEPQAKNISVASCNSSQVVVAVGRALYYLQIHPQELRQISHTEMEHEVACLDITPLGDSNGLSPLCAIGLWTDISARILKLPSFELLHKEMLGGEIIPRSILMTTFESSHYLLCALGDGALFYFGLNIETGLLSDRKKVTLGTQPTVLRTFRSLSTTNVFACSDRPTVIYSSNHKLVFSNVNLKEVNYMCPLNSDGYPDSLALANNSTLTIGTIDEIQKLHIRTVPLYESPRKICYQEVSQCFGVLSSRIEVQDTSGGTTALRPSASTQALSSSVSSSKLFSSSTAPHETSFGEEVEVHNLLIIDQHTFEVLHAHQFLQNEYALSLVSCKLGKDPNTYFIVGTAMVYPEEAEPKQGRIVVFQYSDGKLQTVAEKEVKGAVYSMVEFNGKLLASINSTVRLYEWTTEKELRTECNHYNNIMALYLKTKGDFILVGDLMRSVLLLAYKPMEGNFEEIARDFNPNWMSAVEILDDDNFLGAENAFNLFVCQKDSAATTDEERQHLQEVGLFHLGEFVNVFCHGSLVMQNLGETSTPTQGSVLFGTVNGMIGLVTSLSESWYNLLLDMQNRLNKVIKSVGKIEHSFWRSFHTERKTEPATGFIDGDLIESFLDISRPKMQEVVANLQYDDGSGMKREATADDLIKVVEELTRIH

| SMILES | DC50 [µM] | Dmax (maximal effect) [%] |
| --- | --- | --- |
| COc1ccc(-c2ocnc2C(=O)NCCCn2cc(-c3ccc(CN4CCN(Cc5ccc(C(=O)NC6CCC(=O)NC6=O)nc5)CC4)cn3)nn2)cc1Cl (centres unmarked) [AHD2B-1-F2] | > 10 | <30 |
| COc1ccc(-c2ocnc2C(=O)NCCCn2cc(COc3ccc(CN4CCN(Cc5ccc(C(=O)NC6CCC(=O)NC6=O)nc5)CC4)cc3)nn2)cc1Cl (centres unmarked) [AHD2B-1-F3] | > 10 | <30 |
| COc1ccc(-c2ocnc2C(=O)NCCCn2cc(CCCOc3ccc(CN4CCN(Cc5ccc(C(=O)NC6CCC(=O)NC6=O)nc5)CC4)cc3)nn2)cc1Cl (centres unmarked) [AHD2B-1-F4] | 0.25 | 32 |
| COc1ccc(-c2ocnc2C(=O)NCCCn2cc(COC3CCN(Cc4ccc(C(=O)NC5CCC(=O)NC5=O)nc4)CC3)nn2)cc1Cl (centres unmarked) [AHD2B-1-F5] | > 10 | <30 |
| COc1ccc(-c2ocnc2C(=O)NCCCn2cc(COc3ccc(CN4CCC5(C4)CN(Cc4ccc(C(=O)NC6CCC(=O)NC6=O)nc4)C5)cc3)nn2)cc1Cl (centres unmarked) [AHD2B-1-F6] | 1.1 | 34 |
| COc1ccc(-c2ocnc2C(=O)NCCCn2cc(CCCCCN3CCN(Cc4ccc(C(=O)NC5CCC(=O)NC5=O)nc4)CC3)nn2)cc1Cl (centres unmarked) [AHD2B-1-F7] | > 10 | <30 |
| COc1ccc(-c2ocnc2C(=O)NCCCn2cc(-c3cccc(CN4CCN(Cc5ccc(C(=O)NC6CCC(=O)NC6=O)nc5)CC4)n3)nn2)cc1Cl (centres unmarked) [AHD2B-1-F8] | > 10 | <30 |
| COc1ccc(-c2ocnc2C(=O)NCCCn2cc(CCCCCN3CCCN(Cc4ccc(C(=O)NC5CCC(=O)NC5=O)nc4)CC3)nn2)cc1Cl (centres unmarked) [AHD2B-1-F9] | > 10 | <30 |
| COc1ccc(-c2ocnc2C(=O)NCCCn2cc(COCCOCCN3CCN(Cc4ccc(C(=O)NC5CCC(=O)NC5=O)nc4)CC3)nn2)cc1Cl (centres unmarked) [AHD2B-1-F10] | > 10 | <30 |
| COc1ccc(-c2ocnc2C(=O)NCCCn2cc(COc3ccc(CN4CC5(C4)CN(Cc4ccc(C(=O)NC6CCC(=O)NC6=O)nc4)C5)cc3)nn2)cc1Cl (centres unmarked) [AHD2B-1-F11] | > 10 | <30 |
| COc1ccc(-c2ocnc2C(=O)NCCCn2cc(CCCN3CCN(Cc4ccc(C(=O)NC5CCC(=O)NC5=O)nc4)CC3)nn2)cc1Cl (centres unmarked) [AHD2B-1-F12] | > 10 | <30 |
| COc1ccc(-c2ocnc2C(=O)NCCCn2cc(CCCCN3CCN(Cc4ccc(N5CCC(=O)NC5=O)cc4)CC3)nn2)cc1Cl [AHD2B-1-G1] | > 10 | <30 |
| COc1ccc(-c2ocnc2C(=O)NCCCn2cc(-c3ccc(CN4CCN(Cc5ccc(N6CCC(=O)NC6=O)cc5)CC4)cn3)nn2)cc1Cl [AHD2B-1-G2] | > 10 | <30 |
| COc1ccc(-c2ocnc2C(=O)NCCCn2cc(COc3ccc(CN4CCN(Cc5ccc(N6CCC(=O)NC6=O)cc5)CC4)cc3)nn2)cc1Cl [AHD2B-1-G3] | > 10 | <30 |
| COc1ccc(-c2ocnc2C(=O)NCCCn2cc(CCCOc3ccc(CN4CCN(Cc5ccc(N6CCC(=O)NC6=O)cc5)CC4)cc3)nn2)cc1Cl [AHD2B-1-G4] | > 10 | <30 |
| COc1ccc(-c2ocnc2C(=O)NCCCn2cc(COC3CCN(Cc4ccc(N5CCC(=O)NC5=O)cc4)CC3)nn2)cc1Cl [AHD2B-1-G5] | > 10 | <30 |
| COc1ccc(-c2ocnc2C(=O)NCCCn2cc(COc3ccc(CN4CCC5(C4)CN(Cc4ccc(N6CCC(=O)NC6=O)cc4)C5)cc3)nn2)cc1Cl [AHD2B-1-G6] | > 10 | <30 |
| COc1ccc(-c2ocnc2C(=O)NCCCn2cc(CCCCCN3CCN(Cc4ccc(N5CCC(=O)NC5=O)cc4)CC3)nn2)cc1Cl [AHD2B-1-G7] | > 10 | <30 |
| COc1ccc(-c2ocnc2C(=O)NCCCn2cc(-c3cccc(CN4CCN(Cc5ccc(N6CCC(=O)NC6=O)cc5)CC4)n3)nn2)cc1Cl [AHD2B-1-G8] | > 10 | <30 |
| COc1ccc(-c2ocnc2C(=O)NCCCn2cc(CCCCCN3CCCN(Cc4ccc(N5CCC(=O)NC5=O)cc4)CC3)nn2)cc1Cl [AHD2B-1-G9] | > 10 | <30 |
| COc1ccc(-c2ocnc2C(=O)NCCCn2cc(COCCOCCN3CCN(Cc4ccc(N5CCC(=O)NC5=O)cc4)CC3)nn2)cc1Cl [AHD2B-1-G10] | > 10 | <30 |
| COc1ccc(-c2ocnc2C(=O)NCCCn2cc(CCCN3CCN(Cc4ccc(N5CCC(=O)NC5=O)cc4)CC3)nn2)cc1Cl [AHD2B-1-G12] | > 10 | <30 |
